Measurements: article PMC3904506 (International journal of biological macromolecules, 2013)
Structures can show the parent of a compound that is named as a salt. Where two headings read alike, the source gives them in different places.

Key:
[1] = target: T1, CDA mutant E24Q (Homo sapiens, UniProt P32320, E24Q); test: CDA activity assay, substrate kinetics, E24Q mutant; details: 37 °C
[2] = target: T2, CDA variant K27/A70 (Homo sapiens, UniProt P32320); test: CDA activity assay, substrate kinetics, K27/A70 variant
[3] = target: T3, CDA variant Q27/A70 (Homo sapiens, UniProt P32320, K27Q); test: CDA activity assay, substrate kinetics, Q27/A70 variant; details: 37 °C
T3 sequence (P32320 whole entry K27Q): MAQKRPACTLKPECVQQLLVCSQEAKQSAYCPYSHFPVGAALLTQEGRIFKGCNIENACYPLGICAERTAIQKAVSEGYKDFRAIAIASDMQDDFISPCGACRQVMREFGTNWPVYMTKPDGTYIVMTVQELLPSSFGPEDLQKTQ

[4] = target: T4, CDA variant K27/T70 (Homo sapiens, UniProt P32320, A70T); test: CDA activity assay, substrate kinetics, K27/T70 variant; details: 37 °C
T4 sequence (P32320 whole entry A70T): as the sequence (P32320 whole entry K27Q) above, with Q27K, A70T counted along it

[5] = target: T1, CDA mutant E24Q; test: Inhibition of deoxycytidine deamination, E24Q mutant
[6] = target: T3, CDA variant Q27/A70; test: Inhibition of deoxycytidine deamination, Q27/A70 variant
[7] = target: T4, CDA variant K27/T70; test: Inhibition of deoxycytidine deamination, K27/T70 variant
[8] = target: T2, CDA variant K27/A70; test: Oxidative resistance experiments, K27/A70 variant; type: biochemical
[9] = target: T3, CDA variant Q27/A70; test: Oxidative resistance experiments, Q27/A70 variant; type: biochemical
[10] = target: T4, CDA variant K27/T70; test: Oxidative resistance experiments, K27/T70 variant; type: biochemical
[11] = target: T1, CDA mutant E24Q; test: Oxidative resistance experiments, E24Q mutant; type: biochemical
[12] = target: T2, CDA variant K27/A70; test: Inhibition of deoxycytidine deamination, K27/A70 variant; details: double-reciprocal plots, substrate deoxycytidine
[13] = 100 μM NaOCl, 60 min of incubation, 37 °C
[14] = read-out: K0.5 (concentration at 50% inhibition of activity), NaOCl
[15] = Q27/A70, double-reciprocal plots, substrate deoxycytidine
[16] = K27/T70, double-reciprocal plots, substrate deoxycytidine

T1 sequence (P32320 whole entry E24Q): as the sequence (P32320 whole entry K27Q) above, with E24Q, Q27K counted along it

## Nc1ccn([C@H]2CC[C@@H](CO)O2)c(=O)n1 [2′,3′-CdR, 2′,3′-dideoxycytidine]
[1]
  Km: not substrate
[2]; 37 °C
  Km: not substrate
[3]
  Km: not substrate
[4]
  Km: not substrate

## Nc1ccn([C@@H]2O[C@H](CO)[C@@H](O)[C@H]2O)c(=O)c1 [3-Deaza-cytidine]
[5]
  Ki: 2900 nM
[6]
  Ki: 1800 nM
[7]
  Ki: 2400 nM

## Nc1ccn([C@H]2C[C@H](O)[C@@H](CO)O2)c(=O)n1 [CdR, 2′-deoxycytidine]
[2]; temperature range 10–35 °C
  enthalpy of binding ΔH (van't Hoff plot): 3.57 kcal/mol
[2]; temperature range 35–80 °C
  enthalpy of binding ΔH (van't Hoff plot): -8.88 kcal/mol

## Nc1ncn([C@@H]2O[C@H](CO)[C@@H](O)[C@@H]2O)c(=O)n1 [Fazarabine, 1-β-D-arabinofuranosyl-5-azacytosine]
[2]
  increase in catalytic efficiency with respect to the Q27/A70 and K27/T70 variants: 3 fold

## OO [H2O2, hydrogen peroxide]
[8]; read-out: K0.5, H2O2
  IC50: 23.5 mM
[9]; read-out: K0.5, H2O2
  IC50: 15 mM
[10]; read-out: K0.5, H2O2
  IC50: 11.5 mM
[11]; read-out: K0.5, H2O2
  IC50: 8 mM

## [Na+].[O-]Cl [NaOCl, sodium hypochlorite]
[8]; [13]
  residual activity: 32%
[8]; [14]
  IC50: 0.06 mM
[9]; [13]
  residual activity: 49%
[9]; [14]
  IC50: 0.1 mM
[10]; [13]
  residual activity: 27.5%
[11]; NaOCl (100 μM, Fig. 6A), 60 min of incubation
  residual activity: 97%
[11]; [14]
  IC50: 1 mM

## Nc1ncc([C@@H]2O[C@H](CO)[C@@H](O)[C@H]2O)c(=O)[nH]1 [Pseudoisocytidine-HCl]
[12]
  Ki: 28 µM
[6]; [15]
  Ki: 46000 nM
[7]; [16]
  Ki: 60000 nM

## O=C1NC(O)CCN1[C@H]1C[C@H](O)[C@@H](CO)O1 (stereo partly drawn) [Tetrahydro-2′-deoxyuridine]
[12]
  Ki: 0.04 µM
[6]; [15]
  Ki: 260 nM
[7]; [16]
  Ki: 260 nM
